In publication PMC9282638, “A Suite of Activity-Based Probes To Dissect the KLK Activome in Drug-Resistant Prostate Cancer” (Journal of the American Chemical Society, 2021):
Square brackets hold non-standard residues; d marks the D form. Ends that are not written are not given here. Peptide text beside a SMILES is read from it. * marks the point of attachment. Phe(3,4-F2) = N[C@@H](Cc1ccc(F)c(F)c1)C(=O)O; Phe(4-Br) = N[C@@H](Cc1ccc(Br)cc1)C(=O)O; Phe(4-NH2) = Nc1ccc(C[C@H](N)C(=O)O)cc1; Dab = NCC[C@H](N)C(=O)O; Nle = CCCC[CH](N)C(=O)O; Abu = CC[C@H](N)C(=O)O; Dap = NC[C@H](N)C(=O)O; X1 = OB(O)C(CCCBr)N*; Ahx = NCCCCCC(=O)O

Legend:
[1] = molecular target: T1, KLK14 (Homo sapiens, UniProt Q9P0G3); test: Determination of kinact/KI, fluorogenic substrate kinetic assay; format: biochemical; conditions: for selectivity (fold-change): KLK14 over KLK2; for Kinact/KI KLK14 / kinact/KI: mean ± SEM (N = 3)
T1 construct: purchased R&D Systems
T1 sequence (Q9P0G3 25-251): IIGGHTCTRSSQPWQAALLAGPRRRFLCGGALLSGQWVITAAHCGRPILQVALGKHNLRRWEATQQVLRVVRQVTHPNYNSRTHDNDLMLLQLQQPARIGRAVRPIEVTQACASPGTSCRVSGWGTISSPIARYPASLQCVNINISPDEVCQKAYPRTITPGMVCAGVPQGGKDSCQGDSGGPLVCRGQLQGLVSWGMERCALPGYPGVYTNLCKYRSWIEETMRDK

[2] = molecular target: T2, KLK2 (Homo sapiens, UniProt P20151); test: as above; format: biochemical; conditions: for selectivity (fold-change): KLK2 over KLK14
T2 construct: purchased R&D Systems
Source text: 1.1 Chemicals and Reagents
All chemicals and reagents were purchased from commercial suppliers and used without further purification. Rink Amide resin (100-200 mesh) and 2-Chlorotrityl chloride resin (100-200 mesh, 1% DVB) were obtained from Merck. Natural Fmoc-amino acids were obtained from AGTC Bioproducts Ltd. Unnatural Fmoc-amino acids were obtained from Fluorochem, Alfa Aesar, VWR, Merck, Iris Biotech, Bachem or Sigma Aldrich. Culture media, fetal bovine serum, trypsin, antibiotics and chemicals required for differentiation of osteoprogenitor cells were obtained from Sigma Aldrich, Gibco or Invitrogen. Amicon 3 KDa Centrifugal filter units were obtained from Merck. Recombinant human KLK2 and KLK14 were obtained from R&D Systems and activated using the supplier’s protocol. All remaining chemical reagents were obtained from VWR, Sigma Aldrich or Merck. […]
Fluorescent plate-based enzymatic assays were carried out using an Envision 2104 Multilabel Plate Reader (PerkinElmer) operating in kinetic mode for a minimum of 20 min with excitation/emission […]
Specificity […]
was calculated by normalizing RFUs-1 to the highest value, which was set at 100 %.
Calculations were made in GraphPad Prism 5.
Determination of kcat/KM: The KLK2 substrate and KLK14 substrate were serially diluted in the appropriate KLK assay buffer and 25 μL was added to the wells of a 96-well plate. Next, 25 μL of KLK2 (1.5 nM) or KLK14 (75 pM) was added to each well containing the substrate and the enzyme-substrate reaction was monitored for at least 10 min. The linear portion of each progress curve was used to calculate relative fluorescence units per second (RFUs-1).
KM, kcat, and kcat/KM parameters were determined by nonlinear regression in GraphPad Prism 5 (GraphPad Software). Each experiment was repeated three times and the results are presented as an average ± SEM.
Determination of kinact/KI: Under pseudo-first order conditions, a fixed amount of KLK2 (1.5 nM) or KLK14 (37 pM) was incubated with peptidyl-DPP analogue at different concentrations in the presence of 5 µM of substrate. The pseudo first-order rate constant, kobs, was calculated for each probe concentration using non-linear regression analysis in GraphPad Prism 5. The obtained values were plotted against probe concentration to afford the apparent second order rate constant kinact(app)/KI. The absolute value of the second order rate constant was then obtained by adjusting for the substrate competition factor (1 + [S]/Km), where S is the concentration of substrate in the assay and KM is the Michaelis Menten constant for that substrate/enzyme reaction.
2.5 Cell Migration Assays
Cell migration: The assay was performed as per the manufacturer’s protocol (https://www.corning.com/catalog/cls/documents/protocols/an_Chemotaxis_protocol.pdf).
Briefly, LNCaP-WT, LNCaP-mK14 and LNCaP-K14 cells were grown to 80% confluency in RPMI media supplemented with 5 % FBS. The media was then aspirated, the cells were washed with 2 mL PBS (3*) and incubated with serum-free RPMI (without phenol red) supplemented with 10 nM DHT ± 100 ng/mL Dox for 24 h. Cells were trypsinized, washed twice with serum-free RPMI and resuspended in serum-free RPMI. 100,000 cells in 100 µL of serum-free RPMI was then added to the transwell inserts placed in a 24-well plate (Corning […]
Figure S15: KLK2 and KLK14 substrates. (A) Structures (B) Optimal assay conditions for […]
S19) inhibitors (C) Michaelis-Menten (K M) and rate (kcat) constants for KLK substrates

[3] = molecular target: T3, KLK3 (Homo sapiens, UniProt P07288); test: Competitive ABPP against 3 in LNCaP conditioned media, densitometry; format: biochemical; conditions: LNCaP CM, analogue 1 h then 20 μM 3 for 1 h; 16 analogues tested
T3 construct: endogenous in cells; host or cells: LNCaP cells treated with 10 nM DHT; conditioned medium
Procedure: Despite exquisite selectivity, maximal KLK3 labeling was achieved only after treatment with 20 μM 3 for 1 h. We therefore optimized probe potency by systematically modifying each amino acid side chain in the P1–P4 positions of a morpholine-capped peptidyl-DPP inhibitor scaffold and determined the potency of each analogue using competitive-ABPP against 3.[25],[26] LNCaP CM was first incubated with a peptidyl-DPP analogue for 1 h, followed by 1 h treatment with 20 μM 3 to assess the degree of KLK3 inhibition by densitometry (Figures S4 and S5 for fluorescent gels and Figure S6 for structures of each morpholine-capped peptidyl-DPP analogue). […] Second generation biotinylated 20 and fluorescent 21 ABPs (Figures 2G and S7) based on this scaffold retained exquisite selectivity for KLK3 in LNCaP CM, but in contrast to first-generation ABP 3 achieved maximum labeling at only 1 μM and readily detectable labeling down to 130 nM (Figures 2H and S7).
Figure S4: Typical gel obtained from assessment of the potency of P1 (top) and P2 (bottom) morpholine-DPP analogues against KLK3 using competitive ABPP. […] Residual KLK3 activity was calculated using densitometry (ImageQuant) by comparing to a DMSO treated sample. […]

[4] = tested on: KLK3; conditions: cited from earlier work
[5] = tested on: LNCaP cells; test: KLK activity and expression in LNCaP cells after AR signaling perturbation (streptavidin enrichment and immunoblotting); format: cell-based, human; conditions: 10 nM DHT ± 10 μM Enz, 48 h
Procedure: (B) KLK activity and expression in the LNCaP cell line after treatment with 10 nM DHT ± 10 μM Enz. KLK activity was assessed by streptavidin enrichment of probe-labeled KLK molecules following treatment of conditioned media with 1 μM of either 31, 20, or 39 for 1 h.
To enable detection of each KLK in WT LNCaP cells, we incubated LNCaP conditioned media with 1 μM of each KLK ABP, enriched labeled proteins on streptavidin beads, and visualized activity levels by immunoblotting with the appropriate KLK antibody (see Figure S19 for workflow).
Routine cell culture conditions: Wild-type LNCaP cells (passage <15) were grown in RPMI
Androgen-signaling Experiments: LNCaP cells grown to 80 % confluency in a T175 plate
were incubated with phenol red-free RPMI media supplemented with 5 % charcoal-stripped
FBS for 24 h. After 24 h, the media was aspirated, and the cells were incubated with serum-
free RPMI media (0 % FBS and phenol red-free) supplemented with the appropriate treatment
condition (10 nM DHT or 10 nM DHT + 10 μM Enzalutamide) for a further 48 h. After 48 h the
media was collected, passed through a 0.2 μm syringe filter and stored at – 80 °C until needed.

[6] = KLK14 probe optimization series
[7] = KLK14 probe optimization series, mean ± SEM (N = 3)
[8] = KLK2 probe optimization series, mean ± SEM (N = 3)

T2 sequence (P20151 25-261): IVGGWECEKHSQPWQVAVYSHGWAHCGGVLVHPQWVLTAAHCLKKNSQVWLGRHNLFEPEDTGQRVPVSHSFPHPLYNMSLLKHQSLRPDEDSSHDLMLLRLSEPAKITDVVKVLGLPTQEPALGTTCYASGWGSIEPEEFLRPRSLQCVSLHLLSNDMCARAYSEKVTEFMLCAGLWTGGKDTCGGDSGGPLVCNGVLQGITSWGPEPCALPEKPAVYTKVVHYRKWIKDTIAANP
T3 sequence (P07288 25-261): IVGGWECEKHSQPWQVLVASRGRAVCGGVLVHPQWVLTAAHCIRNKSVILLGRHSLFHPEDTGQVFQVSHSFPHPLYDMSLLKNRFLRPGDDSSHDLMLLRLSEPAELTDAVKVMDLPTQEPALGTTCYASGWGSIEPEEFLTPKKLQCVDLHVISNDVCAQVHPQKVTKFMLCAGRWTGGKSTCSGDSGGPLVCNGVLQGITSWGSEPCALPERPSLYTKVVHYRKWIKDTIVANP

Row | Compound | Kinact/KI KLK14 [1, 6] [M^–1 s^–1] | selectivity (fold-change) ([2]; KLK2 probe optimization series) [fold] | Kinact/KI KLK14 ([1]; KLK2 probe optimization series) [M^–1 s^–1] | Kinact/KI KLK2 [2, 8] [M^–1 s^–1] | further results
1 | Thr(Bz)-Dab-Abu-Arg [compound 36] | 18274 ± 680 | – | – | – | selectivity (fold-change) [1, 6]: 11 fold; Kinact/KI KLK2 [2, 7]: 1668 ± 60 M^–1 s^–1
2 | CCC[C@H](NC(=O)[C@H](CCC(N)=O)NC(=O)[C@H](CC(N)=O)NC(=O)CN1CCOCC1)C(=O)NC(c1ccc(C(N)=O)cc1)P(=O)(Oc1ccccc1)Oc1ccccc1 (stereo partly shown) [compound 15] | – | – | – | – | KLK3 inhibition by competitive ABPP [3]: potent KLK3 inhibitor
3 | CCC(NC(=O)CCCCCNC(=O)CCCCC1SCC2NC(=O)NC21)C(=O)NC(CCN)C(=O)NC(CC1CCCCC1)C(=O)NC(c1ccc(NC(=N)N)cc1)P(=O)(Oc1ccccc1)Oc1ccccc1 (stereo not drawn) [compound 22, Abu-Dab-Cha-Arg] | – | 6 | – | – | kinact/KI ([1]; KLK2 probe optimization series): 511 ± 18 M⁻¹ s⁻¹; kinact/KI [2, 8]: 3270 ± 39 M⁻¹ s⁻¹
4 | Thr(Bz)-Lys-Hse(Bz)Arg [compound 33] | 1121 ± 54 | – | – | – | –
5 | Thr(Bz)-Dap-Abu-Arg [compound 37] | 12636 ± 496 | – | – | – | selectivity (fold-change) [1, 6]: 11 fold; Kinact/KI KLK2 [2, 7]: 1162 ± 40 M^–1 s^–1
6 | Thr(Bz)-Lys-Phe(3,4-F2)-Arg [compound 34] | 602 ± 33 | – | – | – | –
7 | Thr(Bz)-Lys-Abu-Arg [compound 35] | 5903 ± 254 | – | – | – | selectivity (fold-change) [1, 6]: 25 fold; Kinact/KI KLK2 [2, 7]: 231 ± 9 M^–1 s^–1
8 | O=C(NC(c1ccc(O)cc1)P(=O)(Oc1ccccc1)Oc1ccccc1)OCc1ccccc1 (stereo not shown) [compound 1] | – | – | – | – | KLK3 inhibition (in words) [4]: modestly potent inhibitor of KLK3
9 | Abu-Dab-4 Pal-Arg [compound 24] | – | 7 | 390 ± 15 | 2586 ± 54 | –
10 | CCCCC(NC(=O)C(CCC(N)=O)NC(=O)C(CO)NC(=O)C(Cc1ccccc1)NC(=O)CCCCCN)C(=O)NC(CCCBr)B(O)O (stereo not shown) [compound 2] (H-[Ahx]FSQ[Nle]-X1; configuration not given here) | – | – | – | – | KLK3 inhibition (in words) [4]: potent and selective KLK3 inhibitor
11 | [Phe(4-Br)][Dab][Abu]R [compound 40] | 20215 ± 570 | – | – | – | selectivity (fold-change) [1, 6]: 57 fold; Kinact/KI KLK2 [2, 7]: 350 ± 9 M^–1 s^–1
12 | [Abu][Dab]YR [compound 26] | – | 14 | 552 ± 11 | 7881 ± 249 | –
13 | [Abu][Dab]WR [compound 27] | – | 9 | 270 ± 5 | 2374 ± 37 | –
14 | C[C@]12CCC(=O)C[C@@H]1CC[C@@H]1[C@@H]2CC[C@]2(C)[C@@H](O)CC[C@@H]12 [DHT, dihydrotestosterone] | – | – | – | – | KLK14 expression and activity [5]: decreased; expression and activity of KLK2 and KLK3 [5]: upregulated
15 | Abu-Dab-Phe(3-CI)-Arg [compound 25] | – | 8 | 443 ± 16 | 3615 ± 107 | –
16 | [Abu][Dab][Phe(4-NH2)]R [compound 23] | – | 4 | 432 ± 15 | 1659 ± 35 | –
17 | CC(OCc1ccccc1)C(NC(=O)CCCCCNC(=O)CCCCC1SCC2NC(=O)NC21)C(=O)NC(CCCCN)C(=O)NC(Cc1cn(Cc2ccccc2)cn1)C(=O)NC(c1ccc(NC(=N)N)cc1)P(=O)(Oc1ccccc1)Oc1ccccc1 (stereo not shown) [compound 32, Thr(Bz)-Lys-His(Bz)-Arg] | – | – | – | – | kinact/KI [1, 6]: 523 ± 46 M⁻¹ s⁻¹
18 | Tyr(Bz)-Dab-Abu-Arg [compound 41] | 8894 ± 132 | – | – | – | selectivity (fold-change) [1, 6]: 91 fold; Kinact/KI KLK2 [2, 7]: 98 ± 4 M^–1 s^–1
19 | Abu-Lys(TFA)-Tyr-Arg [compound 29] | – | – | – | 128 ± 19 | –
20 | [Abu][Dab][Phe(3,4-F2)]R [compound 28] | – | 2 | 2526 ± 173 | 5653 ± 265 | –
21 | CNC(=O)c1ccc(N2C(=S)N(c3ccc(C#N)c(C(F)(F)F)c3)C(=O)C2(C)C)cc1F [enzalutamide] | – | – | – | – | KLK14 expression and activity [5]: restored; expression and activity of KLK2 and KLK3 [5]: nullified
22 | [Dap][Dab]YR [compound 30] | – | – | 134 ± 6 | 1849 ± 53 | –
